According to ChEMBL document CHEMBL1159347, “A novel constituent from Rollinia mucosa, rollicosin, and a new approach to develop annonaceous acetogenins as potential antitumor agents” (J Nat Prod, 2003):
In brackets after ≈: the same amount, converted by molar mass.

Columns and labels:
[1] = Cytotoxicity against human HepG2(2.2.15) cells; type: functional, cell-based
HepG2 = assay: Cytotoxicity against human HepG2 cells; type: functional, cell-based

SMILES | IC50 [1] | IC50 (HepG2)
COc1cccc2c1C(=O)c1c(O)c3c(c(O)c1C2=O)C[C@@](O)(C(=O)CO)C[C@@H]3O[C@H]1C[C@H](N)[C@H](O)[C@H](C)O1 [DOXORUBICIN] | 0.45 µg/mL (≈ 0.828 µM) | 
C[C@H]1C=C(C[C@H](O)CCCCCCCCCC[C@@H](O)[C@H]2CCC(=O)O2)C(=O)O1 [ROLLICOSIN] | 0.021 µg/mL (≈ 0.053 µM) | 0.1 µg/mL (≈ 0.252 µM)
